Data: patent publication US10724028B2, “Ligand-binding fiber and cell culture substrate using said fiber” (NISSAN CHEMICAL INDUSTRIES, LTD., priority 2014, dated 2020)

Tested on: TPO-dependent human megakaryoblastic leukemia cell line (UT-7/TPO)
Test: Cell culture evaluation: UT-7/TPO cell number count using WST-8 after 6 days of culture on the substrate
Format: cell-based
Protocol: The ligand-bonded fiber 1 of Example 1 and the fiber of Comparative Example 1 were subjected to cell culture evaluation. As a control for the evaluation, a system in which PSt substrate was configured (positive control: thrombopoietin (TPO) (10 ng/mL) was added to medium, negative control: medium alone) was used. In the following, the CO2 concentration (%) of the CO2 incubator is shown by % by volume of CO2 in the atmosphere.
As the cell, TPO-dependent human megakaryoblastic leukemia cell line (UT-7/TPO; Komatsu et. al., Blood, 1996, 87, pp. 4552-4560) was used. For cell culture, IMDM (Iscove's Modified Dulbecco's Medium) medium (manufactured by Sigma-Aldrich) containing 10% (v/v) FBS and 10 ng/mL TPO (Thrombopoietin, manufactured by PeproTech) was used. The cells were cultured for not less than 2 days in a CO2 incubator at 37° C. while keeping 5% carbon dioxide concentration. The obtained culture medium was centrifuged (manufactured by TOMY SEIKO Co., Ltd., LC-200, 1500 rpm/3 min, room temperature), the supernatant was removed, the above-mentioned IMDM medium free of TPO was added to prepare a cell suspension. The “FBS” here means fetal bovine serum (manufactured by Biological Industries).
The ligand-bonded fiber of Example 1, the fiber of Comparative Example 1, and PSt substrate (for positive control and negative control) were configured in 6 well flat-bottom microplates (manufactured by AS ONE Corporation). […]
After 6 days of cell culture, the cell culture medium was recovered from respective wells in which the ligand-bonded fibers 1-3 of Examples 1-3, the fiber of Comparative Example 1, the substrate of Comparative Example 2, and PSt substrates for positive control and negative control were configured. […] After standing in a CO2 incubator at 37° C. for 120 min, the absorbance at 450 nm was measured by an absorption spectrometer (manufactured by Molecular Devices, SpectraMax). […]
After 6 days of culture, the cell number was counted in the same manner as above by using WST-8. […]

thrombopoietin [positive control]
100%: cell number (%) cell culture, first time (Table 3, UT-7/TPO, 6 days culture, positive control (TPO 10 ng/mL) as 100%) | cell number (%) cell culture, third time (Table 3, same substrate reused a third time, fresh UT-7/TPO cells, 6 days, positive control as 100%) | cell number (%) cell culture, second time (Table 3, same substrate reused after PBS wash, fresh UT-7/TPO cells, 6 days, positive control as 100%)
